Results reported in BindingDB's records for patent US20160046618 (Amgen, 2016).

Columns and labels:
[1] = target: Cathepsin D (Homo sapiens, UniProt P07339); assay: In Vitro Enzymatic Cathepsin D (Cat D) FRET Assay
Protocol: Recombinant Cat D was expressed in CHO cells. The assay buffer for CathepsinD is 0.05 M citrate pH 3.5, 10% DMSO final, 5 mM CHAPS. […] The assays are effectively started by the addition of different FRET substrates (20 nM for Cat D) and the combination is incubated for one hour. The FRET assay is terminated with by addition of Tris buffer, which raises the pH to neutrality, and the fluorescence is determined. The FRET substrate is a peptide with commercially available fluorophore and quencher, on opposite sides of the BACE cleavage site. […] Proteolytic cleavage of the FRET substrate releases quenching of fluorescence (Cat D excitation 500 nm and emission 580 nm).

[2] = target: T1, Beta-secretase 2 (Homo sapiens, UniProt Q9Y5Z0); assay: In Vitro Enzymatic BACE1 and BACE2 FRET Assays
T1 sequence (Q9Y5Z0 whole entry): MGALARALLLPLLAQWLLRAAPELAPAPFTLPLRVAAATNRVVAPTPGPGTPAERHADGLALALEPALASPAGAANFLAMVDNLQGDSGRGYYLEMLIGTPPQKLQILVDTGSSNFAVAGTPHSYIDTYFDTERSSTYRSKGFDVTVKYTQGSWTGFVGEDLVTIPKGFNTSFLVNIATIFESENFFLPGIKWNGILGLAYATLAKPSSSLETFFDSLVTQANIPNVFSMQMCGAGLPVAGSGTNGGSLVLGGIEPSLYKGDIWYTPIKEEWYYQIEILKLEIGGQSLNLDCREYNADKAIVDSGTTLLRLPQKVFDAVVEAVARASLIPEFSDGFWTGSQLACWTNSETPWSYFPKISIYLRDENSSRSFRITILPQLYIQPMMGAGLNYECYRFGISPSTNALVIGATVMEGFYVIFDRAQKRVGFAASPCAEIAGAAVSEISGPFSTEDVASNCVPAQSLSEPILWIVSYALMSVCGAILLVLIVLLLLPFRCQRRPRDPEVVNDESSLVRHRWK
Protocol: (§1) The cDNAs for both human recombinant BACE1 and BACE2 with C-terminal 6-His Tags were cloned into transient protein expression vectors, which were subsequently transfected into mammalian cell lines. These recombinant proteins were further purified using Ni-NTA affinity chromatography (Qiagen). The assay buffer used in these screens is 0.05 M acetate, pH 4.5, 8% DMSO final, 100 uM genapol (which is a nonionic detergent, below its Critical Micelle Concentration). […] This assay is effectively started by the addition of FRET substrate (50 nM) and the combination is incubated for one hour. The FRET assay is terminated by addition of Tris buffer, which raises the pH to neutrality, and the fluorescence is determined. The FRET substrate is a peptide with commercially available fluorophore and quencher, on opposite sides of the BACE cleavage site.

[3] = target: Beta-secretase 1 (Homo sapiens, UniProt P56817); assay: In Vitro Enzymatic BACE1 and BACE2 FRET Assays
Beta-secretase 1, sequence (P56817 whole entry): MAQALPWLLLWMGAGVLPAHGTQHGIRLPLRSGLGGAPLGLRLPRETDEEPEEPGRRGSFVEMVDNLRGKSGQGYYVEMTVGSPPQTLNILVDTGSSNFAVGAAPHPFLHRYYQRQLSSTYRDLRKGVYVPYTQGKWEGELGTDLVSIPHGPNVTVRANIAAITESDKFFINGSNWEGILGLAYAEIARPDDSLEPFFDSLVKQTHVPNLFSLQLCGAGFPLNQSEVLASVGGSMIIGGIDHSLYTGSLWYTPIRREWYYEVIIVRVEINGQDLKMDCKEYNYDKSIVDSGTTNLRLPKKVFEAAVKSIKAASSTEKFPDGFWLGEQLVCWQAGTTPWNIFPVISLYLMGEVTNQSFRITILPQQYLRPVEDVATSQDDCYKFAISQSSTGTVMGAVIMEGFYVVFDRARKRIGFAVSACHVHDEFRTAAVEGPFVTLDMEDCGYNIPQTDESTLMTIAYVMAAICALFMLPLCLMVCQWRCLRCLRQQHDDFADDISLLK
Protocol: as §1

Cathepsin D, sequence (P07339 65-162 limits assumed): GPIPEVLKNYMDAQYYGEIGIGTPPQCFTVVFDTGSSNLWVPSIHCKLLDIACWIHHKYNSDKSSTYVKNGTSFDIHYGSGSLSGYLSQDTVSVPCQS
Cathepsin D, sequence (P07339 169-412 limits assumed): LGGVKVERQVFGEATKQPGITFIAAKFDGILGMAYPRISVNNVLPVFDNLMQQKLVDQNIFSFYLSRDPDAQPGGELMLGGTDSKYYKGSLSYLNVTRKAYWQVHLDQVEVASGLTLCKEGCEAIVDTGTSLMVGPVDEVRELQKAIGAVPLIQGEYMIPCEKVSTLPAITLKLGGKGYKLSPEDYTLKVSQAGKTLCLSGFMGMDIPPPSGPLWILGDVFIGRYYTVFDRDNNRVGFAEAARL

SMILES | IC50 [1] [µM] | IC50 [2] [µM] | IC50 [3] [µM]
NC1=N[C@](CF)(c2cc(Nc3ncnc4cc(Cl)cnc34)ccc2F)[C@H]2C[C@@H]2S1 [US20160046618, Example 39] | 1220 | 0.0278 | 
Cc1cc(C#N)cnc1C(=O)Nc1cc(F)c(F)c([C@@]2(CF)N=C(N)S[C@@]3(C(F)F)C[C@@H]23)c1 [US20160046618, Example 94] | 559 | < 0.00203 | 
C#C[C@H](C)Oc1cnc(C(=O)Nc2cc(F)c(F)c([C@@]3(C)N=C(N)S[C@@]4(CF)C[C@H]43)c2)c(C)n1 [US20160046618, Example 616] | 905 | 0.124 | 0.00342
C#C[C@H](C)Oc1cnc(C(=O)Nc2cc(F)c(F)c([C@@]3(C)N=C(N)S[C@@]4(COC)C[C@H]43)c2)c(C)n1 [US20160046618, Example 622] | 946 | 0.225 | 0.00492
C#C[C@H](C)Oc1cnc(C(=O)Nc2ccc(F)c([C@@]3(C)N=C(N)S[C@@]4(C(F)F)C[C@@H]34)c2)c(C)c1 [US20160046618, Example 648] | 196 | 0.522 | 0.0433
C#CCOc1cnc(C(=O)Nc2ccc(F)c([C@@]3(C)N=C(N)S[C@@]4(CF)C[C@H]43)c2)cn1 [US20160046618, Example 822] | 150 | 0.0147 | 0.000264
C[C@]1(c2cc(NC(=O)c3ccc(Cl)cn3)cc(F)c2F)N=C(N)S[C@@]2(C(=O)O)C[C@H]21 [US20160046618, Example 899] | > 400 | 0.00258 | 0.00889
NC1=N[C@](CF)(c2cc(Nc3nccc4nc(OCc5ncco5)cnc34)ccc2F)[C@@H]2C[C@]2(c2c[nH]nn2)S1 [US20160046618, Example 957] | 1260 | 0.00538 | 0.000621
C=CC(C)Oc1cnc(C(=O)Nc2ccc(F)c([C@@]3(C)N=C(N)S[C@@]4(COC)C[C@H]43)c2)cn1 (stereo not given in full) [US20160046618, Example 1063] | > 400 | 0.555 | 0.037
